Consider 7 molecules from patent US5494932A, “Sulfonic stilbene derivatives in the treatment of viral disease” (Merrell Dow Pharmaceuticals Inc., priority 1991, dated 1996).

Like-named read-outs stand apart in the source and are kept apart here.

Test [1] has as its system virus-induced cell fusion (gp120-CD4 dependent). As to the kind of experiment: Anti-syncytial cocultivation assay: H9 cells chronically infected with HIV-1 RF mixed with uninfected C8166 cells. Format: cell-based, HIV-1 RF; human H9 and C8166 cells. To be noted: for blocking virus-induced cell fusion and death: summary statement. The source says: Syncytial cell formation depends on the interaction of gp120, expressed in the membranes of infected cells, with the CD4 antigen on neighboring cells (Camerini and Seed, 1990). We utilized a cell cocultivation model to examine the effect of the stilbene disulfonic acids on the gp120-CD4 dependent fusion process. This system consists of mixing H9 cells chronically infected with HIV-1 RF (gp120^+ cells) with uninfected C8166 cells (CD4^+ cells) as the fusion indicator. In this assay, cell fusion occurred within 2 to 3 hours of mixing at 37° C. and substantial syncytia were observed after a further 3 to 4 hours (FIG. 1, Panel A). […] These findings with the sulfated polysaccharides were consistent with a previous report (Montefiori et al., 1990).
The effect of the stilbene disulfonic acids and various sulfated polysaccharides on virus-induced cell fusion. In this assay, 10^5 H9 cells, chronically infected with the HIV-1 strain RF, were cocultured with 10^5 uninfected C8166 cells in the absence and presence of the test compounds. FIG. 1A: Positive control, no compound addition; FIG. 1B: 100 μg/ml DIDS; FIG. 1C: 100 μg/ml SITS; FIG. 1D: positive control; FIG. 1E: 10 μg/ml 500,000 MW dextran sulfate; FIG. 1F: 250 μg/ml heparin.
CD4^+ uninfected C8166 cells were seeded into 24-well trays ([…]) that contained growth medium and various concentrations of test compounds. H9 cells, chronically infected with the RF strain of HIV-1, were washed and then added as a source of gp120^+ cells at 10^5 cells/well except for the noncytopathic control: those wells received uninfected H9 cells. The trays were then incubated at 37° C. and the cocultures were observed between 1 and 6 hours p.i. Syncytia were recorded on photographic film.
Protocol: H9 cells chronically infected with RF strain of HIV-1 and uninfected C8166 cells were mixed in the presence of either DIDS, SITS, H2 DIDS, dextran sulfate, or heparin (100 μg/ml). The cells were observed after 2, 31/2 and 51/2 hours and the amount of cell fusion quantified.
Protocol: H9 cells chronically inected with HIV-1 and uninfected C8166 cells were mixed in the presence of either DIDS, SITS, H2 DIDS, dextran sulfate, heparin (at 100 μg/ml), OKT4 or OKT4A (at a 1/50 dilution). The cells were observed after 4 hours and the amount of cell fusion quantitied. OKT4 and OKT4A are monoclonal antibodies that bined the CD4 cell surface antigen.

The next test deals with HCMV. As to the kind of experiment: Plaque reduction assay, HCMV. Format: cell-based. The protocol: (§1) Protocol: Plaque reduction assay. Treatment after adsorption during incubation.
In general terms: In a plaque reduction assay, fewer plaques than in the control indicate reduced infectivity or spread.

A further test concerns HIV-1. Particulars: cited from earlier work.
The test system of test [2] is virus-induced cell fusion (gp120-CD4 dependent). Nature of the test: Cell fusion after pretreatment of uninfected C8166 cells, washing and mixing with chronically infected H9 cells. To be noted: cells pretreated and washed before mixing with H9 cells. Format: cell-based, HIV-1; human H9 and C8166 cells. As for the experimental part: In the next experiments, CD4+ C8166 cells were pretreated overnight with either DIDS (100 μg/ml), SITS (100 μg/ml) or drug-free medium. Unabsorbed compounds were removed by repeated washings and chronically infected H9 cells were then added. […] Thus, cell washing prior to mixing with the H9 cells oblated the protective effect observed above (FIG. 1, Panel E) when 500,000 MW dextran sulfate was continually present in the assay.
Pretreatment of CD4+ C8166 cells with DIDS blocks fusion with chronically infected H9 cells. In this experiment, C8166 cells were pretreated overight with various stilbene disulfonic acids or drug-free medium (fusion control). The cells were washed, incubated with chronically infected H9 cells and syncytia were photographed at 6 hours post-mixing. Pretreatment conditions were as follows: […]: 100 μg/ml SITS; FIG. 2B: drug-free medium; and FIG. 2C: 100 μg/ml DIDS.
In pretreatment experiments, CD4^+ C8166 cells were maintained in serum-free medium (RPMI 1640 plus human transferrin 50 μg/ml, bovine insulin 20 μg/ml, bovine serum albumin 2 mg/ml) and were exposed to compound by overnight incubation. Treated cells were washed twice in fresh serum-free medium and then cocultured with chronically infected H9 cells in serum-free medium. Otherwise, cell numbers, assay conditions and scoring of syncytia were as described above.
Protocol: C8166 cells were pretreated for 2.5 hours with either DIDS, SITS or H2 DIDS (at 500 and 250 μg/ml). The cells were then washed three times and mixed with H9 cells chronically infected with HIV-1. Cell fusion was quantified after 4 and 24 hours.

For a further test, the system named is HSV 2. Nature of the test: Plaque reduction assay, HSV 2. It counts as cell-based. The protocol:
as §1

The next test deals with HIV-1 infected JM cells. As to the kind of experiment: Treatment of HIV-1 infected JM cells with DIDS, SITS and ddC. It counts as cell-based, HIV-1 (human T cell line JM). To be noted: 5 μM. As for the experimental part: Protocol: JM cells were infected with HIV to give approximately 100 syncytia after 3 days. Virus adsorption was at room temperature for 2 hours. The cells were then washed thoroughly and distributed in wells of a tissue culture plate at a concentration of 1×10^5 cells/well. At 24 hours post infection either DIDS (100 μg/ml), SITS (100 μg/ml), or ddC (5 μM) were added to wells having infected cells. As virus controls, some wells had no drug added. At 42 hours post infection other wells received either ddC (5 μM), SITS (100 μg/ml), or DIDS (100, 50, 25, 12.5, 6.25 μg/ml). Syncytia were scored at 3 and 4 days post-infection and the supernatant fluids were harvested after 3 and 4 days for p24 core antigen determination.

As to “Dextran sulfate (8,000) [reference compound]”, the “cell fusion / syncytia” value in test [1] (100 μg/ml, at the time of cell mixing) is reported as “totally ineffective”. The “blocking virus-induced cell fusion and death” value in test [1] is “ineffective at blocking virus-induced cell fusion and death”.
On to `Nc1nc(O)c2ncn(COC(CO)CO)c2n1` [Gancyclovir, reference compound], for which the Plaque counts came out at 34 in the test on HCMV (0.1 μg/ml, first count); 39 in the test with HCMV (0.1 μg/ml, second count); 6 with HCMV (1 μg/ml, first count); 13 with HCMV (1 μg/ml, second count); 1 with HCMV (1 μg/ml, third count); 3 in the test with HCMV (10 μg/ml, first count). In addition, the Plaque counts was determined as 2 in the test with HCMV (10 μg/ml, second count); 7 in the test with HCMV (10 μg/ml, third count); 0 with HCMV (1000 μg/ml, first count); 0 with HCMV (1000 μg/ml, second count); 0 in the test on HCMV (1000 μg/ml, third count). The activity at 0.1 µg/mL in the test on HCMV (Human betaherpesvirus 5, 0.1 μg/ml, read-out: Mean % VC (plaques)) was greater than 100%. For the same molecule, the activity at 1 µg/mL in the test with HCMV (Human betaherpesvirus 5, 1 μg/ml, read-out: Mean % VC (plaques)) turned out to be 22%. For the same molecule, the activity at 10 µg/mL in the test on HCMV (Human betaherpesvirus 5, 10 μg/ml, read-out: Mean % VC (plaques)) worked out at 10%. Further, in the test with HCMV (Human betaherpesvirus 5, 1000 μg/ml, read-out: Mean % VC (plaques)), the activity at 1000 µg/mL came out at 0%.
For the molecule pentosan polysulfate, the “inhibition of HIV-1 replication in vitro” value with HIV-1 is given as “highly effective inhibitors”.
As to Heparin [reference compound], in test [1] (250 μg/ml, Panel F), the “cell fusion relative to nontreated virus control” value was “totally ineffective”. Further, in test [1], the “blocking virus-induced cell fusion and death” value was “ineffective at blocking virus-induced cell fusion and death”. The “inhibition of HIV-1 replication in vitro” value with HIV-1 is “highly effective inhibitors”. Further, the “protective effect after pretreatment” value in test [2] is listed as “no protective effect”.
As for `Nc1nc2c(ncn2COCCO)c(=O)[nH]1` [Acyclovir, reference compound], the Plaque counts with HSV 2 (0.1 μg/ml, first count) came out at 44; in the test with HSV 2 (0.1 μg/ml, second count), 34; with HSV 2 (1 μg/ml, first count), 31; in the test on HSV 2 (1 μg/ml, second count), 31; with HSV 2 (1 μg/ml, third count), 29; with HSV 2 (10 μg/ml, first count), 0. The Plaque counts with HSV 2 (10 μg/ml, second count) is reported as 1; in the test with HSV 2 (10 μg/ml, third count), 0; with HSV 2 (100 μg/ml, first count), 0; in the test with HSV 2 (100 μg/ml, second count), 0; with HSV 2 (100 μg/ml, third count), 0. Moreover, the activity at 0.1 µg/mL in the test with HSV 2 (0.1 μg/ml, read-out: Mean % VC (plaques)) came to 70%. Moreover, in the test on HSV 2 (1 μg/ml, read-out: Mean % VC (plaques)), the activity at 1 µg/mL was determined as 54%. In addition, the activity at 10 µg/mL with HSV 2 (10 μg/ml, read-out: Mean % VC (plaques)) is 0%. Further, the activity at 100 µg/mL in the test on HSV 2 (100 μg/ml, read-out: Mean % VC (plaques)) came out at 0%.
On to Dextran Sulfate [reference compound], for which, in test [1] (100 μg/ml, virus control +++), the “Syncytia after 3 1/2 hrs” value worked out at 0 and the “Syncytia after 5 1/2 hrs” value is on record as 0. Further, the “inhibition of HIV-1 replication in vitro” value in the test with HIV-1 is listed as “highly effective inhibitors”.
As to `Nc1ccn([C@H]2CC[C@@H](CO)O2)c(=O)n1` [ddC, reference compound], the entries for the “Mean syncytia/well 3 days p.i.” value with HIV-1 infected JM cells (added 24 hr) and in the test with HIV-1 infected JM cells (added 42 hr) were 65 and “As VC”, respectively. In addition, the entries for the “Mean syncytia/well 4 days p.i.” value with HIV-1 infected JM cells (added 24 hr) and in the test on HIV-1 infected JM cells (added 42 hr) were 51 and “As VC”, respectively. Besides, the “p24 antigen 3 days p.i.” value in the test on HIV-1 infected JM cells (added 24 hr) was determined as 9000 pg/mL; in the test with HIV-1 infected JM cells (added 42 hr) it was 17000 pg/mL. Further, the “p24 antigen 4 days p.i.” value came out at 3100 pg/mL in the test on HIV-1 infected JM cells (added 24 hr) and 67000 pg/mL with HIV-1 infected JM cells (added 42 hr). Further, the activity at 5 µM in the test with HIV-1 infected JM cells (Human immunodeficiency virus 1, 72 h, added 24 hr, read-out: p24 antigen 3 days p.i., % control) amounted to 19%; in the test with HIV-1 infected JM cells (Human immunodeficiency virus 1, 72 h, added 42 hr, read-out: p24 antigen 3 days p.i., % control), 36%; in the test with HIV-1 infected JM cells (Human immunodeficiency virus 1, 96 h, added 24 hr, read-out: p24 antigen 4 days p.i., % control) it was 3.5%; in the test on HIV-1 infected JM cells (Human immunodeficiency virus 1, 96 h, added 42 hr, read-out: p24 antigen 4 days p.i., % control) it was 75%.
